What was measured:
Type in all cases: cell-based, human
LNCaP/AR(cs) cells = experiment: Transcriptional reporter assay (probasin-luciferase); conditions: for Agonist Transcriptional Reporter Assay (% Max Activity): [Antagonists] = 50 μM; for Antagonist Transcriptional Reporter Assay (% Max Activity): [Antagonists] = 50 μM in presence of R1881
Protocol: (§1) With the exception of the LNCaP/AR(cs)-Luc cells that contain an integrated androgen responsive reporter, cells were transiently transfected using Lipofectin® (Life Technologies) according to the manufacturer's protocol. […] Following transfection, the cells were incubated for 4 hours.
(§2) Following 48 hour incubation the medium was removed and the cells were lysed in 40 μL of lysis buffer (25 mM Tris Phosphate, 2 mM CDTA, 10% Glycerol, 0.5% Triton X-100, 2 mM DTT).

[1] = tested on: Class 1 ARN-509- and MDV3100-resistant cell lines; experiment: Proliferation assay (CellTiter-Glo), agonist and antagonist mode; conditions: for Ligand independent growth of Class 1 cells in presence of compound: absence of added androgens
LNCaP cells [2] = experiment: Transcriptional reporter assay (probasin-luciferase); conditions: for Agonist Transcriptional Reporter Assay (% Max Activity): [Antagonists] = 50 μM; for Antagonist Transcriptional Reporter Assay (% Max Activity): [Antagonists] = 50 μM in presence of R1881
Protocol: as §1, §2

[3] = tested on: Class 1 resistant cell lines; experiment: as above; conditions: for Agonist Transcriptional Reporter Assay (% Max Activity) / Antagonist Transcriptional Reporter Assay (% Max Activity): Class 1; for Agonist Transcriptional Reporter Assay (% Max Activity): [Antagonists] = 50 μM; for Antagonist Transcriptional Reporter Assay (% Max Activity): [Antagonists] = 50 μM in presence of R1881; for Antagonist activity in probasin-luciferase reporter, Class 1 resistant cells: decrease in luciferase activity relative to no treatment controls
Protocol: as §1, §2

LNCaP ARN-509r1 cells = experiment: Endogenous gene transcriptional assay (real-time PCR of androgen responsive genes); conditions: 1 nM R1881 or 30 μM compound, vehicle=1.00
Protocol: (§3) Total RNA was isolated using the Aurum™ total RNA isolation kit (BIO-RAD, Hercules, Calif.). RNA (1 μg) was reverse transcribed using the iScript cDNA synthesis kit (BIO-RAD, Hercules, Calif.) to produce cDNA. Real-time PCR was performed using the Applied Biosystems 7900HT instrument and SYBR Green PCR Master Mix (Applied Biosystems, Foster City, Calif.). PCR reactions were performed in 6 μL according to the manufacturer's protocol and a thermocycle protocol of 95° C. for 10 minutes followed by 40 cycles of 95° C. for 15 seconds and 58° C. for 1 minute. Androgen responsive gene (PSA, SLUG, TMPRSS2, STEAP4, FKBP5, ORM1, NOV, FASN, NKX3.1, AMIGO2, BDNF, CAMK2N1, HPGD, NCAPD3, PLD1) expression was normalized to GAPDH expression and expressed relative to vehicle treatment of the parental cell line.
(§4) Gene expression was normalized to GAPDH as described above.

[4] = tested on: Class 2 MDV3100- and ARN-509-resistant cell lines; experiment: Proliferation assay (CellTiter-Glo), agonist and antagonist mode; conditions: for Antagonism of androgen dependent growth of Class 2 resistant lines: antagonist mode
LNCaP cells [5] = experiment: Endogenous gene transcriptional assay (real-time PCR of androgen responsive genes); conditions: 1 nM R1881 or 30 μM compound, vehicle=1.00
Protocol: as §3, §4

[6] = tested on: Class 2 resistant cell lines; experiment: Transcriptional reporter assay (probasin-luciferase); conditions: for Agonist Transcriptional Reporter Assay (% Max Activity) / Antagonist Transcriptional Reporter Assay (% Max Activity): Class 2; for Agonist Transcriptional Reporter Assay (% Max Activity): [Antagonists] = 50 μM; for Antagonist Transcriptional Reporter Assay (% Max Activity): [Antagonists] = 50 μM in presence of R1881
Protocol: as §1, §2

LNCaP ARN-509r2 cells = experiment: Endogenous gene transcriptional assay (real-time PCR of androgen responsive genes); conditions: 1 nM R1881 or 30 μM compound, vehicle=1.00
Protocol: as §3, §4

LNCaP/AR-Luc cells = experiment: as above; conditions: 1 nM R1881 or 30 μM compound, vehicle=1.00
Protocol: as §3, §4

[7] = Homo sapiens, 168 h, read-out: Antagonist Proliferation Assay (% Viability)

Compound: CNC(=O)c1ccc(N2C(=S)N(c3cnc(C#N)c(C(F)(F)F)c3)C(=O)C23CCC3)cc1F [ARN-509]
- Agonist Transcriptional Reporter Assay (% Max Activity) (LNCaP/AR(cs) cells): + (‘+’ = <5)
- Antagonist Transcriptional Reporter Assay (% Max Activity) (LNCaP/AR(cs) cells): + (‘+’ = <5)
- Effect on growth inhibitory activity of R1881 in Class 1 cells [1]: antagonized
- viability at 0.0001 µM [1, 7]: > 30%
- Ligand independent growth of Class 1 cells in presence of compound [1]: unaltered
- Agonist Transcriptional Reporter Assay (% Max Activity) (LNCaP cells [2]): + (‘+’ = <5)
- Antagonist Transcriptional Reporter Assay (% Max Activity) (LNCaP cells [2]): + (‘+’ = <5)
- Agonist Transcriptional Reporter Assay (% Max Activity) [3]: + (‘+’ = <5)
- Antagonist Transcriptional Reporter Assay (% Max Activity) [3]: ++ (‘++’ = >5)
- Antagonist activity in probasin-luciferase reporter, Class 1 resistant cells [3]: effective antagonists
- AMIGO2 gene expression (LNCaP ARN-509r1 cells): 0.62
- BDNF gene expression (LNCaP ARN-509r1 cells): 0.90
- CAM2KN1 gene expression (LNCaP ARN-509r1 cells): 0.37
- FASN gene expression (LNCaP ARN-509r1 cells): 1.04
- FKBP5 gene expression (LNCaP ARN-509r1 cells): 2.58
- HPGD gene expression (LNCaP ARN-509r1 cells): 2.36
- NCAPD3 gene expression (LNCaP ARN-509r1 cells): 1.29
- NKX3.1 gene expression (LNCaP ARN-509r1 cells): 6.54
- NOV gene expression (LNCaP ARN-509r1 cells): 1.40
- ORM1 gene expression (LNCaP ARN-509r1 cells): 15.89
- PLD1 gene expression (LNCaP ARN-509r1 cells): 0.33
- PSA gene expression (LNCaP ARN-509r1 cells): 32.67
- SLUG gene expression (LNCaP ARN-509r1 cells): 4.66
- STEAP4 gene expression (LNCaP ARN-509r1 cells): 3.03
- TMPRSS2 gene expression (LNCaP ARN-509r1 cells): 10.20
- Agonist Proliferation Assay (% Viability) ([4]; Class 2, [Antagonists] = 10 μM, 7 days): ++ (‘++’ = >30)
- viability at 0.0001 µM [4, 7]: > 30%
- Stimulation of proliferation in Class 2 cell lines ([4]; agonist mode): can stimulate proliferation
- Antagonism of androgen dependent growth of Class 2 resistant lines [4]: only partially antagonized
- AMIGO2 gene expression (LNCaP cells [5]): 1.12
- BDNF gene expression (LNCaP cells [5]): 1.09
- CAM2KN1 gene expression (LNCaP cells [5]): 1.17
- FASN gene expression (LNCaP cells [5]): 1.34
- FKBP5 gene expression (LNCaP cells [5]): 0.99
- HPGD gene expression (LNCaP cells [5]): 1.48
- NKX3.1 gene expression (LNCaP cells [5]): 0.90
- NOV gene expression (LNCaP cells [5]): 1.73
- ORM1 gene expression (LNCaP cells [5]): 0.71
- PLD1 gene expression (LNCaP cells [5]): 1.09
- PSA gene expression (LNCaP cells [5]): 0.66
- SLUG gene expression (LNCaP cells [5]): 1.27
- STEAP4 gene expression (LNCaP cells [5]): 0.78
- TMPRSS2 gene expression (LNCaP cells [5]): 0.77
- Agonist activity in probasin-luciferase reporter assay, Class 2 resistant cells [6]: no agonist activity
- Agonist Transcriptional Reporter Assay (% Max Activity) [6]: + (‘+’ = <5)
- Antagonist Transcriptional Reporter Assay (% Max Activity) [6]: + (‘+’ = <5)
- AMIGO2 gene expression (LNCaP ARN-509r2 cells): 0.67
- BDNF gene expression (LNCaP ARN-509r2 cells): 1.04
- CAM2KN1 gene expression (LNCaP ARN-509r2 cells): 0.46
- FASN gene expression (LNCaP ARN-509r2 cells): 0.98
- FKBP5 gene expression (LNCaP ARN-509r2 cells): 8.00
- HPGD gene expression (LNCaP ARN-509r2 cells): 1.49
- NKX3.1 gene expression (LNCaP ARN-509r2 cells): 3.73
- NOV gene expression (LNCaP ARN-509r2 cells): 1.39
- ORM1 gene expression (LNCaP ARN-509r2 cells): 3.94
- PLD1 gene expression (LNCaP ARN-509r2 cells): 0.81
- PSA gene expression (LNCaP ARN-509r2 cells): 1.91
- SLUG gene expression (LNCaP ARN-509r2 cells): 1.31
- STEAP4 gene expression (LNCaP ARN-509r2 cells): 1.45
- TMPRSS2 gene expression (LNCaP ARN-509r2 cells): 3.07
- AMIGO2 gene expression (LNCaP/AR-Luc cells): 1.13
- BDNF gene expression (LNCaP/AR-Luc cells): 1.17
- CAM2KN1 gene expression (LNCaP/AR-Luc cells): 1.13
- FASN gene expression (LNCaP/AR-Luc cells): 1.08
- FKBP5 gene expression (LNCaP/AR-Luc cells): 1.16
- HPGD gene expression (LNCaP/AR-Luc cells): 1.88
- NKX3.1 gene expression (LNCaP/AR-Luc cells): 1.14
- NOV gene expression (LNCaP/AR-Luc cells): 2.55
- ORM1 gene expression (LNCaP/AR-Luc cells): 1.27
- PLD1 gene expression (LNCaP/AR-Luc cells): 1.45
- PSA gene expression (LNCaP/AR-Luc cells): 0.60
- SLUG gene expression (LNCaP/AR-Luc cells): 1.13
- STEAP4 gene expression (LNCaP/AR-Luc cells): 0.88
- TMPRSS2 gene expression (LNCaP/AR-Luc cells): 0.74

Compound: CNC(=O)c1ccc(N2C(=S)N(c3ccc(C#N)c(C(F)(F)F)c3)C(=O)C2(C)C)cc1F [Enzalutamide, enzalutamide]
- Agonist Transcriptional Reporter Assay (% Max Activity) (LNCaP/AR(cs) cells): + (‘+’ = <5)
- Antagonist Transcriptional Reporter Assay (% Max Activity) (LNCaP/AR(cs) cells): + (‘+’ = <5)
- Effect on growth inhibitory activity of R1881 in Class 1 cells [1]: antagonized
- Ligand independent growth of Class 1 cells in presence of compound [1]: unaltered
- Agonist Transcriptional Reporter Assay (% Max Activity) (LNCaP cells [2]): + (‘+’ = <5)
- Antagonist Transcriptional Reporter Assay (% Max Activity) (LNCaP cells [2]): + (‘+’ = <5)
- Agonist Transcriptional Reporter Assay (% Max Activity) [3]: + (‘+’ = <5)
- Antagonist Transcriptional Reporter Assay (% Max Activity) [3]: + (‘+’ = <5)
- Antagonist activity in probasin-luciferase reporter, Class 1 resistant cells [3]: effective antagonists
- AMIGO2 gene expression (LNCaP ARN-509r1 cells): 0.99
- CAM2KN1 gene expression (LNCaP ARN-509r1 cells): 0.59
- FASN gene expression (LNCaP ARN-509r1 cells): 1.53
- FKBP5 gene expression (LNCaP ARN-509r1 cells): 9.45
- HPGD gene expression (LNCaP ARN-509r1 cells): 10.20
- NCAPD3 gene expression (LNCaP ARN-509r1 cells): 3.12
- NOV gene expression (LNCaP ARN-509r1 cells): 1.39
- ORM1 gene expression (LNCaP ARN-509r1 cells): 205.07
- PLD1 gene expression (LNCaP ARN-509r1 cells): 0.24
- PSA gene expression (LNCaP ARN-509r1 cells): 57.68
- SLUG gene expression (LNCaP ARN-509r1 cells): 42.52
- STEAP4 gene expression (LNCaP ARN-509r1 cells): 32.22
- TMPRSS2 gene expression (LNCaP ARN-509r1 cells): 23.75
- Antagonism of androgen dependent growth of Class 2 resistant lines [4]: only partially antagonized
- AMIGO2 gene expression (LNCaP cells [5]): 1.20
- BDNF gene expression (LNCaP cells [5]): 0.85
- CAM2KN1 gene expression (LNCaP cells [5]): 1.39
- FASN gene expression (LNCaP cells [5]): 1.24
- HPGD gene expression (LNCaP cells [5]): 1.78
- NCAPD3 gene expression (LNCaP cells [5]): 1.20
- NKX3.1 gene expression (LNCaP cells [5]): 1.66
- NOV gene expression (LNCaP cells [5]): 2.57
- PLD1 gene expression (LNCaP cells [5]): 0.70
- PSA gene expression (LNCaP cells [5]): 1.69
- SLUG gene expression (LNCaP cells [5]): 2.35
- TMPRSS2 gene expression (LNCaP cells [5]): 1.68
- Agonist activity in probasin-luciferase reporter assay, Class 2 resistant cells [6]: weak partial agonist
- Agonist Transcriptional Reporter Assay (% Max Activity) [6]: ++ (‘++’ = >5)
- Antagonist Transcriptional Reporter Assay (% Max Activity) [6]: ++ (‘++’ = >5)
- AMIGO2 gene expression (LNCaP ARN-509r2 cells): 0.63
- BDNF gene expression (LNCaP ARN-509r2 cells): 0.77
- CAM2KN1 gene expression (LNCaP ARN-509r2 cells): 0.38
- FASN gene expression (LNCaP ARN-509r2 cells): 0.93
- FKBP5 gene expression (LNCaP ARN-509r2 cells): 3.41
- HPGD gene expression (LNCaP ARN-509r2 cells): 4.56
- NCAPD3 gene expression (LNCaP ARN-509r2 cells): 1.35
- NKX3.1 gene expression (LNCaP ARN-509r2 cells): 6.28
- NOV gene expression (LNCaP ARN-509r2 cells): 0.71
- ORM1 gene expression (LNCaP ARN-509r2 cells): 23.75
- PLD1 gene expression (LNCaP ARN-509r2 cells): 0.29
- PSA gene expression (LNCaP ARN-509r2 cells): 2.48
- SLUG gene expression (LNCaP ARN-509r2 cells): 9.58
- TMPRSS2 gene expression (LNCaP ARN-509r2 cells): 4.86
- AMIGO2 gene expression (LNCaP/AR-Luc cells): 1.44
- BDNF gene expression (LNCaP/AR-Luc cells): 1.08
- CAM2KN1 gene expression (LNCaP/AR-Luc cells): 1.51
- FASN gene expression (LNCaP/AR-Luc cells): 1.40
- FKBP5 gene expression (LNCaP/AR-Luc cells): 1.46
- HPGD gene expression (LNCaP/AR-Luc cells): 2.51
- NCAPD3 gene expression (LNCaP/AR-Luc cells): 1.33
- NKX3.1 gene expression (LNCaP/AR-Luc cells): 1.68
- ORM1 gene expression (LNCaP/AR-Luc cells): 1.39
- PLD1 gene expression (LNCaP/AR-Luc cells): 1.33
- PSA gene expression (LNCaP/AR-Luc cells): 0.44
- SLUG gene expression (LNCaP/AR-Luc cells): 2.73
- STEAP4 gene expression (LNCaP/AR-Luc cells): 1.23
- TMPRSS2 gene expression (LNCaP/AR-Luc cells): 1.35
